Paper PMC6778635 (Cancer Science, 2019)

Target: p97/VCP (Homo sapiens, UniProt P55072)
Assay: cell-free ATPase assay on purified recombinant p97/VCP
Format: biochemical

p97/VCP, sequence (P55072 2-806): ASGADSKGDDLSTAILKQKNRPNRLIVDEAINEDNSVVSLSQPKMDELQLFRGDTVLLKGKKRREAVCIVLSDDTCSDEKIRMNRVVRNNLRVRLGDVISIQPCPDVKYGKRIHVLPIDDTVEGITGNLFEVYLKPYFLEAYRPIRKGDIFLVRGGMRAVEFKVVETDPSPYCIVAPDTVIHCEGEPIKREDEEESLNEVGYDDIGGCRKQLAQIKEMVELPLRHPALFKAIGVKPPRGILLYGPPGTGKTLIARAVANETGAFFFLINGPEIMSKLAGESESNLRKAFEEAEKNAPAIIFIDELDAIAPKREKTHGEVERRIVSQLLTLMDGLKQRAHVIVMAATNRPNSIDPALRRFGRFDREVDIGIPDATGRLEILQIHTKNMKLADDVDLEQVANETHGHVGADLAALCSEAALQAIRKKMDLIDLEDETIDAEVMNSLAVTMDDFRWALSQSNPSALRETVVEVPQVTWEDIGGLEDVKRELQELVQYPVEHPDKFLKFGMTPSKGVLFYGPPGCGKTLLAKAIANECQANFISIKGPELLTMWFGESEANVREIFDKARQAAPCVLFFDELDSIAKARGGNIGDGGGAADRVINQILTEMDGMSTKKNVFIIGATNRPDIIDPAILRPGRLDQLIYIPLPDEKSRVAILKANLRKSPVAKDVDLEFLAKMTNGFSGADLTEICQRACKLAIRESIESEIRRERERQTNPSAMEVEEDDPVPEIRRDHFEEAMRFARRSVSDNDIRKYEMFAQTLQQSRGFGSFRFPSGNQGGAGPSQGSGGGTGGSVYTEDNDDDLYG

IC50: 6.99 ± 0.5 µM
Structure (SMILES): c1ccc(CNc2nc(NCc3ccccc3)c3ccccc3n2)cc1 [DBeQ]
